Like-named read-outs stand apart in the source and are kept apart here.
How the values were obtained:
[1] = test system: primary human ALL cells; experiment: cells; conditions: for response of dasatinib-resistant T-ALL: dasatinib-resistant T-ALL cases, as well as cell lines; for response of dasatinib-sensitive primary T-ALL cases to other ABL inhibitors: subset of primary T-ALL samples (N=18)
Experimental: Ex vivo Leukemia Drug Sensitivity Assay. Drug response of primary human ALL cells was evaluated using a co-culture system and flow cytometry assays. hTERT-immortalized mesenchymal stem cells ([…] Wang, et al. (2019) Nat. Commun. 10:3718) were first seeded in a 96-well plate format at a density of 10,000 cells per well in 100 μL of complete medium (RPMI-1640, L-glutamine, 10% fetal bovine serum and 1 μM Hydrocortisone). After 24 hours, leukemia cells were added at 160,000 cells per well to the stromal cell layer in 80 μL AIM-V medium along with 20 μL of drug solution prepared in the same medium. […] After 96 hours incubation at 37° C. with 5% CO2, cells were harvested and stained with CD19 or CD7 to identify leukemia blasts (for B-ALL and T-ALL, respectively). The total number of live leukemia cells were evaluated by using flow cytometry after Annexin V and DAPI staining. Drug-induced death was estimated by comparing to leukemia cells treated with the vehicle alone. The drug concentration that killed 50% of the leukemia cells (LC50 value) was determined using a dose-response model and as a measurement of drug sensitivity. Quality control was performed to remove cases with low viability (less than 1000 viable blast cells in each well in the absence of drugs on day 4).

[2] = dasatinib dosing for CML, oral twice a day; cited from earlier work

Compound: COc1ccc(N(C(=O)Oc2c(C)cccc2C)c2ccnc(Nc3ccc(N4CCN(C)CC4)cc3)n2)c(OC)c1 [WH 4-023]
- cytotoxicity in dasatinib-sensitive cases [1]: potent cytotoxicity
- response of dasatinib-resistant T-ALL [1]: largely did not respond

Compound: Cc1nc(Nc2ncc(C(=O)Nc3c(C)cccc3Cl)s2)cc(N2CCN(CCO)CC2)n1 [dasatinib]
- Cmax [2]: 60 to 120 nM
- T-ALL cases classified as dasatinib-sensitive ([1]; 45 T-ALL cases, cutoff LC50 80 nM, 15 cases): 33.3%
- CC50 ([1]; Homo sapiens, 96 h, read-out: LC50 (mean), cases with high LC50, ALL samples, high-LC50 mode of bimodal distribution, 96 hours): 12000 nM
- CC50 ([1]; Homo sapiens, 96 h, read-out: LC50 (mean), cases with low LC50, ALL samples (352 children and adults), low-LC50 mode of bimodal distribution, 96 hours): 5.92 nM
- CC50 ([1]; Homo sapiens, read-out: LC50 (range), cases with high LC50, ALL samples, high-LC50 mode, 20000 nM is the assigned ceiling): 102 to 20000 nM
- CC50 ([1]; Homo sapiens, read-out: LC50, one T-ALL case with TCF7-SP1 fusion, 0.05 nM is the assigned floor value): ≤ 0.05 nM
- CC50 ([1]; Homo sapiens, read-out: LC50, two additional T-ALL cases with the same SPI1 fusion gene, ex vivo): 0.05 nM
- dasatinib-sensitive T-ALL in adults ([1]; adults with T-ALL, cutoff LC50 80 nM): 16.7%
- dasatinib-sensitive T-ALL in children ([1]; children with T-ALL, cutoff LC50 80 nM): 44.4%
- CC50 ([1]; human, 96 h): 0.05 to 79.4 nM

Compound: Cc1ccc(NC(=O)c2ccc(CN3CCN(C)CC3)cc2)cc1Nc1nccc(-c2cccnc2)n1 [imatinib]
- response of dasatinib-sensitive primary T-ALL cases to other ABL inhibitors [1]: universally resistant

Compound: Cc1cn(-c2cc(NC(=O)c3ccc(C)c(Nc4nccc(-c5cccnc5)n4)c3)cc(C(F)(F)F)c2)cn1 [nilotinib]
- response of dasatinib-sensitive primary T-ALL cases to other ABL inhibitors [1]: universally resistant

Compound: COC(=O)c1ccc2c(c1)NC(=O)/C2=C(\Nc1ccc(N(C)C(=O)CN2CCN(C)CC2)cc1)c1ccccc1 [nintedanib]
- cytotoxicity in dasatinib-sensitive cases [1]: potent cytotoxicity
- response of dasatinib-resistant T-ALL [1]: largely did not respond
